The values that follow are results of earlier work, collected in patent publication US20070042005A1, “Pharmaceutical composition comprising fungal cell or fragment thereof” (priority 2003, published 2007).

The conditions of data set [1]: rats.
For data set [2] the following is noted: in animals; owing to poor intestinal permeability.

As to `C[C@H](N[C@@H](CCc1ccccc1)C(=O)O)C(=O)N1CCC[C@H]1C(=O)O` [Enalaprilat], the oral absorption result is “poorly absorbed orally”.
As for `CCCCCCCCCCCCCCCC(=O)OC(CC(=O)[O-])C[N+](C)(C)C` (stereo not drawn) [Palmitoyl carnitine], the “effect on bioavailability of cefoxitin” value in data set [1] is given as “increase the bioavailability of cefoxitin”.
Take `CO[C@@]1(NC(=O)Cc2cccs2)C(=O)N2C(C(=O)O)=C(COC(N)=O)CS[C@@H]21` [cefoxitin]: the oral bioavailability in data set [2] is given as less than 5%.
